Source: article PMC6104039 (Nature Communications, 2018)
Several values for one entry are separate records, joined by “and”; a condition that tells them apart may be missing. Equal values may be shown once.

Test system: HEK293 cells
Assay: Endogenous ceramide, HexCer and SM levels in cells treated 24 h, targeted LC-MS/MS
Format: cell-based
Parameters: Cer 18:1/24:0 content in HEK293 cells / Cer 18:1/24:1 content in HEK293 cells / HexCer 18:1/16:0 content in HEK293 cells / HexCer 18:1/18:0 content in HEK293 cells / HexCer 18:1/20:0 content in HEK293 cells / HexCer 18:1/22:0 content in HEK293 cells / Cer 18:1/16:0 content in HEK293 cells / Cer 18:1/18:0 content in HEK293 cells / Cer 18:1/20:0 content in HEK293 cells / Cer 18:1/22:0 content in HEK293 cells: unit not given here
Conditions: replicates, raw data Suppl Fig 1
Procedure: Lipids were then extracted using MTBE/methanol/water as described above.
HEK293 cell culture experiment: Levels of each lipid in P053-treated HEK293 cells were normalised to the mean of the vehicle control group, and each concentration was compared to the control using ANOVA with Dunnett’s post-test. P values were adjusted for multiple comparisons in GraphPad PRISM.
Supplementary Figure 1. Ceramide, SM, and HexCer levels in HEK293 cells treated with
P053. Absolute lipid levels were determined by targeted LC-MS/MS, relative to external
standard curves. Results are mean ± SEM (n = 4) from one of two identical experiments.
Statistically significant results, based on two independent experiments, are as indicated in
Figure 2b-d. Raw data for these figures is provided in Supplementary Data File 1.

## C[C@@](N)(CO)CCc1ccc(OCc2ccc(Cl)c(Cl)c2)cc1 [P053, (S)-2-amino-4-(4-(3,4-dichlorobenzyloxy)phenyl)-2-methylbutan-1-ol]
P053 10 nM
  Cer 18:1/24:0 content in HEK293 cells: 78.2507 and 97.4893 and 100.975 and 120.086
  Cer 18:1/24:1 content in HEK293 cells: 41.2869 and 36.9476 and 41.283 and 38.2211
  HexCer 18:1/16:0 content in HEK293 cells: 30.7043 and 33.6425 and 33.4465 and 30.9255
  HexCer 18:1/18:0 content in HEK293 cells: 4.5494 and 4.09 and 4.473 and 4.32
  HexCer 18:1/20:0 content in HEK293 cells: 0.3088 and 0.3692 and 0.4154 and 0.4356
  HexCer 18:1/22:0 content in HEK293 cells: 36.8189 and 34.9551 and 38.6561 and 38.9837
  HexCer 18:1/24:0 content in HEK293 cells: 199.303 and 216.657 and 249.013 and 199.834
  HexCer 18:1/24:1 content in HEK293 cells: 70.2405 and 72.3688 and 73.5755 and 68.734
  SM 32:1 content in HEK293 cells: 35.2485 and 30.6751 and 30.1932 and 30.0675
  SM 34:1 content in HEK293 cells: 296.401 and 243.663 and 224.502 and 225.737
  SM 34:2 content in HEK293 cells: 47.2234 and 40.324 and 36.1571 and 38.6716
  SM 36:1 content in HEK293 cells: 29.6301 and 20.7933 and 22.4748 and 21.0053
  SM 36:2 content in HEK293 cells: 11.2341 and 9.942 and 8.241 and 8.207
  SM 38:1 content in HEK293 cells: 6.182 and 8.401 and 6.6333 and 8.787
  SM 40:1 content in HEK293 cells: 40.0944 and 41.0366 and 34.4775 and 35.2843
  SM 40:2 content in HEK293 cells: 10.3276 and 10.9643 and 10.3385 and 8.643
  SM 42:1 content in HEK293 cells: 68.7535 and 68.4711 and 69.6713 and 77.5442
  SM 42:2 content in HEK293 cells: 119.092 and 115.121 and 104.672 and 105.467
P053 30 nM
  Cer 18:1/16:0 content in HEK293 cells: 19.0547 and 20.8444 and 18.7423 and 20.5749
  Cer 18:1/18:0 content in HEK293 cells: 5.081 and 5.075 and 4.316 and 4.99
  Cer 18:1/20:0 content in HEK293 cells: 0.7183 and 0.7479 and 0.6521 and 0.6855
  Cer 18:1/22:0 content in HEK293 cells: 57.3121 and 66.2959 and 65.6669 and 64.5364
  Cer 18:1/24:0 content in HEK293 cells: 85.8777 and 134.225 and 118.415 and 97.9167
  Cer 18:1/24:1 content in HEK293 cells: 37.3744 and 44.4522 and 42.1609 and 41.0899
  HexCer 18:1/16:0 content in HEK293 cells: 29.7152 and 31.7982 and 33.8438 and 30.9723
  HexCer 18:1/18:0 content in HEK293 cells: 3.0394 and 3.951 and 4.099 and 3.127
  HexCer 18:1/20:0 content in HEK293 cells: 0.3329 and 0.4128 and 0.4628 and 0.5232
  HexCer 18:1/22:0 content in HEK293 cells: 32.4873 and 39.9972 and 37.7095 and 34.9843
  HexCer 18:1/24:0 content in HEK293 cells: 190.472 and 249.822 and 223.238 and 200.878
  HexCer 18:1/24:1 content in HEK293 cells: 66.6616 and 76.2502 and 69.0398 and 65.5993
  SM 32:1 content in HEK293 cells: 30.2036 and 32.0092 and 28.7617 and 34.5111
  SM 34:1 content in HEK293 cells: 248.003 and 262.537 and 249.572 and 281.872
  SM 34:2 content in HEK293 cells: 41.231 and 41.1196 and 40.1333 and 43.2759
  SM 36:1 content in HEK293 cells: 22.0304 and 22.5253 and 18.9401 and 24.6728
  SM 36:2 content in HEK293 cells: 9.089 and 8.502 and 8.127 and 10.0466
  SM 38:1 content in HEK293 cells: 14.9847 and 8.56 and 5.18 and 11.7454
  SM 40:1 content in HEK293 cells: 39.8982 and 44.3327 and 34.2754 and 42.2123
  SM 40:2 content in HEK293 cells: 9.856 and 9.764 and 9.362 and 10.5652
  SM 42:1 content in HEK293 cells: 69.7563 and 80.9547 and 78.46 and 71.8434
  SM 42:2 content in HEK293 cells: 104.731 and 121.981 and 114.303 and 118.688
P053 100 nM
  Cer 18:1/16:0 content in HEK293 cells: 22.9494 and 19.2357 and 22.5073 and 19.0496
  Cer 18:1/18:0 content in HEK293 cells: 2.972 and 3.68 and 3.21 and 2.092
  Cer 18:1/20:0 content in HEK293 cells: 0.613 and 0.738 and 0.687 and 0.5601
  Cer 18:1/22:0 content in HEK293 cells: 66.0373 and 65.445 and 75.6523 and 61.1907
  Cer 18:1/24:0 content in HEK293 cells: 95.8984 and 114.847 and 144.796 and 106.353
  Cer 18:1/24:1 content in HEK293 cells: 43.7952 and 41.4019 and 48.5214 and 41.0347
  HexCer 18:1/16:0 content in HEK293 cells: 28.7244 and 29.2314 and 27.3495 and 32.1782
  HexCer 18:1/18:0 content in HEK293 cells: 1.552 and 2.033 and 2.382 and 2.572
  HexCer 18:1/20:0 content in HEK293 cells: 0.3018 and 0.2953 and 0.2763 and 0.1537
  HexCer 18:1/22:0 content in HEK293 cells: 35.0199 and 40.376 and 33.9893 and 41.9484
  HexCer 18:1/24:0 content in HEK293 cells: 193.278 and 206.781 and 205.001 and 225.138
  HexCer 18:1/24:1 content in HEK293 cells: 66.6213 and 67.2246 and 64.4273 and 72.2662
  SM 32:1 content in HEK293 cells: 33.5311 and 33.1495 and 31.0137 and 33.9978
  SM 34:1 content in HEK293 cells: 239.205 and 244.554 and 241.828 and 261.421
  SM 34:2 content in HEK293 cells: 40.9604 and 43.1506 and 39.5005 and 44.6858
  SM 36:1 content in HEK293 cells: 15.6181 and 17.1499 and 17.2078 and 18.9256
  SM 36:2 content in HEK293 cells: 6.971 and 7.206 and 7.1332 and 7.405
  SM 38:1 content in HEK293 cells: 4.352 and 7.605 and 11.0645 and 10.3031
  SM 40:1 content in HEK293 cells: 39.6185 and 38.4983 and 41.6326 and 45.0957
  SM 40:2 content in HEK293 cells: 10.6428 and 11.1113 and 10.5382 and 10.6417
  SM 42:1 content in HEK293 cells: 70.6629 and 69.6062 and 82.0245 and 85.9318
  SM 42:2 content in HEK293 cells: 112.606 and 107.685 and 114.026 and 114.211
P053 300 nM
  Cer 18:1/16:0 content in HEK293 cells: 17.822 and 19.0766 and 17.3933
  Cer 18:1/18:0 content in HEK293 cells: 1.8912 and 1.699 and 1.376
  Cer 18:1/20:0 content in HEK293 cells: 0.7162 and 0.4601 and 0.6576
  Cer 18:1/22:0 content in HEK293 cells: 64.624 and 69.7847 and 70.6121
  Cer 18:1/24:0 content in HEK293 cells: 94.7176 and 106.124 and 124.497
  Cer 18:1/24:1 content in HEK293 cells: 42.6517 and 39.4375 and 41.6471
  HexCer 18:1/16:0 content in HEK293 cells: 26.9367 and 27.3197 and 28.9409
  HexCer 18:1/18:0 content in HEK293 cells: 1.661 and 1.355 and 1.491
  HexCer 18:1/20:0 content in HEK293 cells: 0.2792 and 0.518 and 0.2446
  HexCer 18:1/22:0 content in HEK293 cells: 43.5691 and 40.2015 and 45.0568
  HexCer 18:1/24:0 content in HEK293 cells: 220.79 and 197.985 and 254.871
  HexCer 18:1/24:1 content in HEK293 cells: 63.1626 and 68.7371 and 74.9033
  SM 32:1 content in HEK293 cells: 31.4532 and 33.3582 and 37.098
  SM 34:1 content in HEK293 cells: 241.436 and 241.197 and 248.392
  SM 34:2 content in HEK293 cells: 42.0268 and 43.5268 and 45.2968
  SM 36:1 content in HEK293 cells: 14.7086 and 14.6722 and 17.3205
  SM 36:2 content in HEK293 cells: 6.184 and 6.8179 and 6.541
  SM 38:1 content in HEK293 cells: 9.78 and 11.6533 and 8.0822
  SM 40:1 content in HEK293 cells: 43.4372 and 43.0067 and 50.439
  SM 40:2 content in HEK293 cells: 12.0217 and 11.0813 and 11.4772
  SM 42:1 content in HEK293 cells: 70.0557 and 70.3641 and 94.669
  SM 42:2 content in HEK293 cells: 117.582 and 110.303 and 130.267
